From patent publication US20260053792A1, “POLYSUBSTITUTED TETRAHYDROISOQUINOLINE COMPOUNDS, METHOD FOR PREPARING SAME, PHARMACEUTICAL COMPOSITION THEREOF, AND USE THEREOF” (SHANGHAI INSTITUTE OF MATERIA MEDICA, CHINESE ACADEMY OF …, priority 2022, published 2026)
Where two headings read alike, the source gives them in different places.

Assay: Tissue distribution of compound A26 in mice (plasma / cerebrospinal fluid drug concentration)
Format: in vivo
Conditions: for Kp at 0.25 h / Kp at 0.5 h / concentration at 15 min / concentration at 30 min: mouse; for Kp at 0.25 h / Kp at 0.5 h: brain/plasma, read-out: Brain to plasma drug concentration ratio (Cbrain/Cplasma); for Kp at 0.25 h / concentration at 15 min: 15 min; for Kp at 0.5 h / concentration at 30 min: 30 min
Experimental: The drug concentrations in plasma or cerebrospinal fluid at two time points of 15 minutes and 30 minutes under three administration routes: oral (20 mg/kg), intraperitoneal injection (10 mg/kg), and intravenous injection (5 mg/kg) were measured.

[1] = cerebrospinal fluid, IP 10 mg/kg, read-out: cerebrospinal fluid
[2] = cerebrospinal fluid, IV 5 mg/kg, read-out: cerebrospinal fluid
[3] = cerebrospinal fluid, PO 20 mg/kg, read-out: cerebrospinal fluid
[4] = plasma, IP 10 mg/kg, read-out: Cardiac plasma
[5] = plasma, IV 5 mg/kg, read-out: Cardiac plasma
[6] = plasma, PO 20 mg/kg, read-out: Cardiac plasma

Structure (SMILES): COc1cc2c(cc1OC)C(CCc1c[nH]c3ccccc13)N(CC1CCOCC1)CC2 (stereo not shown) [Compound A26, 1-(2-(1H-indol-3-yl)ethyl)-6,7-dimethoxy-2-((tetrahydro-2H-pyran-4-yl)methyl)-1,2,3,4-tetrahydroisoquinoline]
- blood-brain barrier penetration ability and brain targeting property (conclusion from brain/plasma ratios): good
- Kp at 0.25 h (IP 10 mg/kg): 2.12
- Kp at 0.5 h (IP 10 mg/kg): 1.91
- Kp at 0.25 h (IV 5 mg/kg): 3.3
- Kp at 0.5 h (IV 5 mg/kg): 2.2
- Kp at 0.25 h (PO 20 mg/kg): 3.4
- Kp at 0.5 h (PO 20 mg/kg): 1.6
- concentration at 15 min [1]: 665 ± 49 ng/g
- concentration at 30 min [1]: 355 ± 106 ng/g
- concentration at 15 min [2]: 1560 ± 245 ng/g
- concentration at 30 min [2]: 292 ± 69 ng/g
- concentration at 15 min [3]: 224 ± 363 ng/g
- concentration at 30 min [3]: 32.4 ± 11.9 ng/g
- concentration at 15 min [4]: 313 ± 15 ng/mL
- concentration at 30 min [4]: 186 ± 57 ng/mL
- concentration at 15 min [5]: 466 ± 85 ng/mL
- concentration at 30 min [5]: 135 ± 47 ng/mL
- concentration at 15 min [6]: 65.3 ± 94.7 ng/mL
- concentration at 30 min [6]: 20.7 ± 6.1 ng/mL
